From US20230016424A1, “HYBRID AMIDE DERIVATIVES OF AMPHOTERICIN B” (The Board of Trustees of the University of Illinois, priority 2019, published 2023)
Values after ≈ are worked out from the molar mass of the structure shown.

Columns and labels:
[1] = system: C. albicans SN250; test: MIC; assay type: cell-based, Candida albicans
[2] = system: C. albicans; test: MIC; assay type: cell-based
[3] = system: C. krusei; test: MIC; assay type: cell-based
[4] = system: C. glabrata; test: MIC; assay type: cell-based
[5] = system: C. tropicalis; test: MIC; assay type: cell-based
[6] = system: A. fumigatus 91; test: MIC; assay type: cell-based
[7] = system: A. fumigatus 1163; test: MIC; assay type: cell-based
[8] = system: A. fumigatus 1100; test: MIC; assay type: cell-based
[9] = system: C. albicans SN250, C. albicans, C. krusei, C. glabrata, C. tropicalis, A. fumigatus 91, 1163, 1100; test: Average MIC over the tested strains; assay type: cell-based; details: average over the 8 listed strains

Compound	MIC C. albicans SN250 [1] [µM]	MIC C. albicans [2] [µM]	MIC C. krusei [3] [µM]	MIC C. glabrata [4] [µM]	MIC C. tropicalis [5] [µM]	MIC A. fumigatus 91 [6] [µM]	MIC A. fumigatus 1163 [7] [µM]	MIC A. fumigatus 1100 [8] [µM]	MIC [9] [µM]
CCC(CO)NC(=O)C1C(O)CC2(O)CC(O)CC(O)C(O)CCC(O)CC(O)CC(=O)OC(C)C(C)C(O)C(C)C=CC=CC=CC=CC=CC=CC=CC(OC3OC(C)C(O)C(N)C3O)CC1O2 (stereo not drawn) [AD]	0.3 (≈ 0.299 µg/mL)	0.35 (≈ 0.348 µg/mL)	0.5 (≈ 0.498 µg/mL)	0.3 (≈ 0.299 µg/mL)	0.4 (≈ 0.398 µg/mL)	2 (≈ 1.99 µg/mL)	1 (≈ 0.995 µg/mL)	1 (≈ 0.995 µg/mL)	0.731
CC(C)CC(CO)NC(=O)C1C(O)CC2(O)CC(O)CC(O)C(O)CCC(O)CC(O)CC(=O)OC(C)C(C)C(O)C(C)C=CC=CC=CC=CC=CC=CC=CC(OC3OC(C)C(O)C(N)C3O)CC1O2 (stereo not drawn) [AE]	1 (≈ 1.02 µg/mL)	0.75 (≈ 0.767 µg/mL)	1 (≈ 1.02 µg/mL)	0.4 (≈ 0.409 µg/mL)	0.5 (≈ 0.512 µg/mL)	2 (≈ 2.05 µg/mL)	1 (≈ 1.02 µg/mL)	1 (≈ 1.02 µg/mL)	0.956
CC1C=CC=CC=CC=CC=CC=CC=CC(OC2OC(C)C(O)C(N)C2O)CC2OC(O)(CC(O)CC(O)C(O)CCC(O)CC(O)CC(=O)OC(C)C(C)C1O)CC(O)C2C(=O)NC(CO)C(C)(C)C (stereo not drawn) [AF]	0.4 (≈ 0.409 µg/mL)	0.5 (≈ 0.512 µg/mL)	1 (≈ 1.02 µg/mL)	0.4 (≈ 0.409 µg/mL)	0.75 (≈ 0.767 µg/mL)	2 (≈ 2.05 µg/mL)	2 (≈ 2.05 µg/mL)	2 (≈ 2.05 µg/mL)	1.131
COCCNC(=O)C1C(O)CC2(O)CC(O)CC(O)C(O)CCC(O)CC(O)CC(=O)OC(C)C(C)C(O)C(C)C=CC=CC=CC=CC=CC=CC=CC(OC3OC(C)C(O)C(N)C3O)CC1O2 (stereo not drawn) [AG]	0.4 (≈ 0.392 µg/mL)	035 (≈ 34.3 µg/mL)	1 (≈ 0.981 µg/mL)	0.3 (≈ 0.294 µg/mL)	0.4 (≈ 0.392 µg/mL)	2 (≈ 1.96 µg/mL)	1 (≈ 0.981 µg/mL)	1 (≈ 0.981 µg/mL)	0.806
CC(O)CNC(=O)C1C(O)CC2(O)CC(O)CC(O)C(O)CCC(O)CC(O)CC(=O)OC(C)C(C)C(O)C(C)C=CC=CC=CC=CC=CC=CC=CC(OC3OC(C)C(O)C(N)C3O)CC1O2 (stereo not drawn) [AH]	0.35 (≈ 0.343 µg/mL)	0.35 (≈ 0.343 µg/mL)	0.75 (≈ 0.736 µg/mL)	0.2 (≈ 0.196 µg/mL)	0.45 (≈ 0.442 µg/mL)	2 (≈ 1.96 µg/mL)	1 (≈ 0.981 µg/mL)	1 (≈ 0.981 µg/mL)	0.763
